pKa data for 42 compounds are collected here from ChEMBL document CHEMBL1125280, “Direct prediction of dissociation constants (pKa's) of clonidine-like imidazolines, 2-substituted imidazoles, and 1-methyl-2-substituted-imidazoles from 3D structures using a comparative molecular field analysis (CoMFA) approach” (J Med Chem, 1991).

The structures appear in SMILES notation.

This data set can be described thus: Ionization constant (pKa). Type of data set: physicochemical.
Turning to `Brc1ncc[nH]1`, the pKa (commonly the negative logarithm of the acid dissociation constant) was 3.79.

As to `Cc1ccccc1N=C1NCCN1`, the pKa was 10.2. The result for `CSc1ncc[nH]1` reads 5.95; that for `Clc1cccc(Br)c1N=C1NCCN1`, 7.93; that for `O=[N+]([O-])c1ncc[nH]1` [AZOMYCIN], -0.81.

As for `Cc1ccc(N=C2NCCN2)c(C)c1`, the pKa came out at 10.6. The result for `Cc1cc(Cl)ccc1N=C1NCCN1` reads 9.99; that for `Clc1ccc(N=C2NCCN2)c(Cl)c1`, 8.73. The result for `Fc1cccc(Cl)c1N=C1NCCN1` reads 8.01; that for `Clc1ncc[nH]1`, 3.55. To `COc1cc(Cl)c(N=C2NCCN2)c(Cl)c1` belongs 8.57; to `Cc1cc(Cl)cc(Cl)c1N=C1NCCN1`, 9.03; to `Cc1cc(C)c(N=C2NCCN2)c(Cl)c1`, 9.59. In turn, `Cn1ccnc1N` showed a pKa of 8.54. The compound `Cn1ccnc1F` registered a pKa of 2.3. The result for `Cc1ncc[nH]1` reads 7.86; that for `Clc1ccc(Cl)c(N=C2NCCN2)c1`, 8.5; that for `Cc1cc(Cl)c(N=C2NCCN2)c(Cl)c1`, 8.29.

In turn, `Cn1ccnc1` [1-METHYLIMIDAZOLE] had a pKa of 7.12.

Take `c1ccc(NC2=NCCN2)cc1`: the pKa amounted to 10.1. `Clc1cc(Cl)c(N=C2NCCN2)c(Cl)c1` had a pKa of 7.75. To `Brc1cc(Br)c(N=C2NCCN2)c(Br)c1` belongs 7.46.

Turning to `Clc1cccc(N=C2NCCN2)c1Cl`, the pKa came out at 8.55.

With `CCc1ncc[nH]1`, the pKa was determined as 7.73. As for `Clc1cc(Br)cc(Cl)c1N=C1NCCN1`, the pKa stood at 7.72. This pKa and that of the compound before are within 0.2 log units of each other. `Cc1cccc(Cl)c1N=C1NCCN1` showed a pKa of 9.4.

As for `Cc1cc(Cl)cc(C)c1N=C1NCCN1`, the pKa was found to be 10.2. The result for `Cc1ccc(NC2=NCCN2)c(Cl)c1` [TOLONIDINE] reads 9.41.

Compound `c1ccn(-c2ncc[nH]2)c1` yielded a pKa of 5.36. The result for `Brc1cccc(Br)c1N=C1NCCN1` reads 7.8; that for `Cn1ccnc1Br`, 3.82; that for `Nc1ncc[nH]1`, 8.46. The result for `CCc1cccc(CC)c1NC1=NCCN1` reads 10.6; that for `Cc1cccc(C)c1N=C1NCCN1`, 10.5; that for `c1ccc(-c2ncc[nH]2)cc1` [2-PHENYLIMIDAZOLE], 6.48.

Compound `Fc1cccc(F)c1N=C1NCCN1` yielded a pKa of 8.18.

`Cn1ccnc1[N+](=O)[O-]` gave a pKa of -0.48. As for `Fc1ncc[nH]1`, the pKa was 2.4. Compound `Clc1ccccc1N=C1NCCN1` had a pKa of 9.15. To `Cc1cc(Br)cc(C)c1N=C1NCCN1` belongs 10.2; to `Cc1cc(C)c(N=C2NCCN2)c(C)c1`, 10.8; to `O=[N+]([O-])c1cc(Cl)c(N=C2NCCN2)c(Cl)c1`, 6.86.
